Experimental data published in ChEMBL document CHEMBL1201862, “PubChem BioAssay data set” (2004).
Active and inactive are the calls of the source.

Assays:
[1] = IC50 of Artemis nuclease activity blockers – biochemical, fluorescence intensity, dose response (AID 720701); format: functional;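 note: Artemis endonuclease enzyme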
SUMO-activating enzyme = SUMO-activating enzyme (Homo sapiens, UniProt Q9UBT2); experiment: blockers of UBC9-mediated SUMO conjugation – biochemical, AlphaScreen, SUMOylation inhibitor project, confirmation (AID 2018); format: functional
[2] = Trypanosoma cruzi growth suppression in host cells – NIH3T3 host cells, beta-gal luminescence, confirmation (AID 2044); format: functional, cell-based;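 note: intracellular parasites grown in NIH/3T3 mouse fibroblasts as host cells; luminescent beta-galactosidase reporter signal from transgenic T. cruzi replicating inside host cells; inhibitors lower the luminescence signal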
[3] = NIH3T3 cell viability loss – ATP luminescence, mouse fibroblasts, counter-screen, dose response (AID 2010); format: functional, cell-based;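 note: cells exposed to compound for about 90 hours before reading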
[4] = A cytotoxicity screen of small molecule inhibitors of the PhoP region in Salmonella typhi identified in the primary screen. [Related pubchem assays: 1850, 1864, 1985 ]; format: functional
[5] = molecular target: Peroxisome proliferator-activated receptor gamma/Nuclear receptor corepressor 2 (Homo sapiens, UniProt P37231+Q9Y618); experiment: Counterscreen for NR2E3 inverse agonists: TR-FRET-based biochemical high throughput dose response assay to identify inverse agonists of the interaction between peroxisome proliferator-activated receptor gamma (PPARg) and nuclear receptor co-repressor 2 (NCOR2).; format: functional
[6] = molecular target: Photoreceptor-specific nuclear receptor (Homo sapiens, UniProt Q9Y5X4); experiment: ligands suppressing NR2E3 nuclear receptor activity – biochemical, TR-FRET, dose response (AID 463256); format: functional
Prothrombin = Prothrombin (Homo sapiens, UniProt P00734); experiment: Thrombin 1536 HTS Dose Response Confirmation. [Related pubchem assays: 1046 (Thrombin 1536 HTS; hits were confirmed in this assay)]; format: functional
Phospholipase A2 = Phospholipase A2 (Homo sapiens, UniProt P04054); format: functional;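 note: confirmatory dose-response counterscreen on phospholipase A2, testing hits that came from an ultra-high-throughput screen for ATG4B inhibitors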
Cysteine protease ATG4B = molecular target: T1, Cysteine protease ATG4B (Homo sapiens, UniProt Q9Y4P1); format: functional;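 note: Fluorescence-based dose-response confirmation assay measuring inhibition of ATG4B activity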
T1 sequence (Q9Y4P1 whole entry): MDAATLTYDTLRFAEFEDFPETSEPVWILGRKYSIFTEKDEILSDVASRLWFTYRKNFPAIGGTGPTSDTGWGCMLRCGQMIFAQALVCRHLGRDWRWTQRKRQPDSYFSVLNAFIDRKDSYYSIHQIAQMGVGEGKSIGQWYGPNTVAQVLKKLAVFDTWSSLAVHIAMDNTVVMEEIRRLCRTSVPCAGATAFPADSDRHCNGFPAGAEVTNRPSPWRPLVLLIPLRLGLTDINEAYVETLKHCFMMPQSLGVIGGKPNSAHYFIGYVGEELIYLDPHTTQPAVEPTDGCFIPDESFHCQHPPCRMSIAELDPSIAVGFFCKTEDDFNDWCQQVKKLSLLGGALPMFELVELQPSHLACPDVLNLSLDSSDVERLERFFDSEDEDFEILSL

[7] = molecular target: Mitogen-activated protein kinase 10 (Homo sapiens, UniProt P53779); experiment: Dose response biochemical screening assay for inhibitors of c-Jun N-Terminal Kinase 3 (JNK3). [Related pubchem assays: 746 ]
[8] = viability loss in CEM21 cells – cell-based, CellTiter-Glo luminescence, cherry-picked, cytotoxicity control for viral fusion inhibitor project, dose response (AID 652042); format: functional;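 note: potency for signal decrease meaning cytotoxicity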
[9] = blockers of HIV-1 envelope-mediated cell-cell fusion – cherry-pick, dose response (AID 652057); format: functional, cell-based
[10] = off-target signal loss in HeLa-CEM21 co-culture – HeLa F-luc CTL cells, cherry-picked, counter-screen for HIV-1 Env fusion inhibitor project, dose response (AID 652040); format: functional, cell-based;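 note: potency for signal decrease marking cytotoxic or nonspecific inhibition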
[11] = HIV-1 AD8 envelope cell-cell fusion blockers – cherry-pick, dose response (AID 652062); format: functional, cell-based;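 note: luciferase signal from cell-cell fusion driven by HIV-1 clade B AD8 Env; potency is for inhibitors of fusion seen as a drop in luminescence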
[12] = blockers of HIV-1 ZM109 envelope-driven cell-cell fusion – HeLa effector, CEM target cells, luciferase, cherry-pick, dose response (AID 652058); format: functional, cell-based;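 note: luciferase signal from HIV-1 Env mediated cell-cell fusion of effector and target cells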
[13] = molecular target: Heat shock protein HSP 90-alpha (Homo sapiens, UniProt P07900); format: functional, organism-based
Albumin = Albumin (Bos taurus, UniProt P02769); experiment: Counterscreen for inhibitors of T-cell receptor (TCR)-CD3 interaction: Fluorescence-based biochemical high throughput dose response assay to identify inhibitors of T-cell receptor (TCR)-CD3 interaction using a TAMRA-labeled BSA probe.; format: functional
[14] = molecular target: G-protein coupled receptor 183 (Homo sapiens, UniProt P32249); experiment: SAR confirmation of small molecule antagonists of the EBI2 receptor via a luminescent beta-arrestin assa.; format: functional
[15] = molecular target: Sphingosine 1-phosphate receptor 2 (Homo sapiens, UniProt O95136); experiment: Dose Response Cell Based Assay for Antagonists of the S1P2 Receptor. [Related pubchem assays: 856, 736 ]; format: functional
[16] = potency of ADAM10 substrate cleavage blockers – biochemical, QFRET, dose response (AID 743254);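 note: ADAM10 enzyme with the DM2 quenched FRET peptide as substrate; EDANS fluorescence gain as the protease cuts the substrate; inhibitor potency against ADAM10 proteolytic activity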
[17] = molecular target: Disintegrin and metalloproteinase domain-containing protein 17 (Homo sapiens, UniProt P78536); experiment: inhibition of ADAM17 substrate cleavage – biochemical, quenched FRET substrate, counter-screen for ADAM10 exosite inhibitor project, dose response (AID 743253)
Sequence of Disintegrin and metalloproteinase domain-containing protein 17 (P78536 whole entry, the tested form may be a part): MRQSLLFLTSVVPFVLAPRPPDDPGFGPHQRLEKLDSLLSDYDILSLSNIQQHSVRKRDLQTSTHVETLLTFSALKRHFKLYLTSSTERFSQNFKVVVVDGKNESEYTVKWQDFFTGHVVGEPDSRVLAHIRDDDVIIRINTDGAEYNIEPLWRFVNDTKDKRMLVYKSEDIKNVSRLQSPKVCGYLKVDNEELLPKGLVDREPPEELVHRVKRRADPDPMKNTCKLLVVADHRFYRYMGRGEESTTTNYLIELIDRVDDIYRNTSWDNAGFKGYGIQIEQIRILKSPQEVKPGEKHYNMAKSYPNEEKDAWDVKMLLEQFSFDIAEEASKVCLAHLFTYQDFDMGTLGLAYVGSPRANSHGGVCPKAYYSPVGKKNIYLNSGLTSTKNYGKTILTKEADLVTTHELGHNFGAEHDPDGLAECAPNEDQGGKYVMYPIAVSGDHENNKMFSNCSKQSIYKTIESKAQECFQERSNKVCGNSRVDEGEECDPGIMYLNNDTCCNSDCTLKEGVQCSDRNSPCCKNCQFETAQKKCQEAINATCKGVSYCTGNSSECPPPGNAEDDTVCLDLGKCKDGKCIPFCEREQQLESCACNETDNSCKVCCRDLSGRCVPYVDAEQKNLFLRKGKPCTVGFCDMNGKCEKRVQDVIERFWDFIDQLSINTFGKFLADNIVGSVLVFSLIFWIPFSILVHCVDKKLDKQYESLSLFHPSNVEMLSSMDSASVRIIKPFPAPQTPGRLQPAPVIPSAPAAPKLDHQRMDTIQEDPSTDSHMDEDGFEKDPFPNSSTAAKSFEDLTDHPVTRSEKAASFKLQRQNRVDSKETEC

Sequence of Photoreceptor-specific nuclear receptor (Q9Y5X4 whole entry): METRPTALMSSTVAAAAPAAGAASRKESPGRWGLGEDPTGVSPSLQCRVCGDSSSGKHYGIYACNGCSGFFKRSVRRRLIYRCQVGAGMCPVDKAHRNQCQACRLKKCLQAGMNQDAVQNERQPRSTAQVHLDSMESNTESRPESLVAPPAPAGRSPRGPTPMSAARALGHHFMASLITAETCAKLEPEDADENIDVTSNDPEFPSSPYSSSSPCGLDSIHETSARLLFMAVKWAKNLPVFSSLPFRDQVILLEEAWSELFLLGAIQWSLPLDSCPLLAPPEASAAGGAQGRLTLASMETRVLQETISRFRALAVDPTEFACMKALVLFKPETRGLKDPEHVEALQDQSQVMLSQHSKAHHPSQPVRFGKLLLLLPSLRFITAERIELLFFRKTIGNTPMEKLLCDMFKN
Sequence of Peroxisome proliferator-activated receptor gamma/Nuclear receptor corepressor 2 (P37231 whole entry): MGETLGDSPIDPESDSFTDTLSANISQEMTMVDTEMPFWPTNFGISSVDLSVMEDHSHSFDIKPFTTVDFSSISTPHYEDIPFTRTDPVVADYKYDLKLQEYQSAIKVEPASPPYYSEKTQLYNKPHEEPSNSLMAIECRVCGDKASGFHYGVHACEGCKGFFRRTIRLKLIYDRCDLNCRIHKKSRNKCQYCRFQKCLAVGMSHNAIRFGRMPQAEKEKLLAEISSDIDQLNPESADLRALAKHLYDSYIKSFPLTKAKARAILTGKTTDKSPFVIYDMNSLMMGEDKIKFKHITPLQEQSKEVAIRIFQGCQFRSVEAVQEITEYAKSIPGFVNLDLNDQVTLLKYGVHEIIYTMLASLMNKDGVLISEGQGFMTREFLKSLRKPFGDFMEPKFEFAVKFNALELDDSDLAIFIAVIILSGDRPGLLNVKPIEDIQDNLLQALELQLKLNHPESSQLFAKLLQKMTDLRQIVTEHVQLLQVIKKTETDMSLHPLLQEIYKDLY
Sequence of Peroxisome proliferator-activated receptor gamma/Nuclear receptor corepressor 2 (Q9Y618 whole entry): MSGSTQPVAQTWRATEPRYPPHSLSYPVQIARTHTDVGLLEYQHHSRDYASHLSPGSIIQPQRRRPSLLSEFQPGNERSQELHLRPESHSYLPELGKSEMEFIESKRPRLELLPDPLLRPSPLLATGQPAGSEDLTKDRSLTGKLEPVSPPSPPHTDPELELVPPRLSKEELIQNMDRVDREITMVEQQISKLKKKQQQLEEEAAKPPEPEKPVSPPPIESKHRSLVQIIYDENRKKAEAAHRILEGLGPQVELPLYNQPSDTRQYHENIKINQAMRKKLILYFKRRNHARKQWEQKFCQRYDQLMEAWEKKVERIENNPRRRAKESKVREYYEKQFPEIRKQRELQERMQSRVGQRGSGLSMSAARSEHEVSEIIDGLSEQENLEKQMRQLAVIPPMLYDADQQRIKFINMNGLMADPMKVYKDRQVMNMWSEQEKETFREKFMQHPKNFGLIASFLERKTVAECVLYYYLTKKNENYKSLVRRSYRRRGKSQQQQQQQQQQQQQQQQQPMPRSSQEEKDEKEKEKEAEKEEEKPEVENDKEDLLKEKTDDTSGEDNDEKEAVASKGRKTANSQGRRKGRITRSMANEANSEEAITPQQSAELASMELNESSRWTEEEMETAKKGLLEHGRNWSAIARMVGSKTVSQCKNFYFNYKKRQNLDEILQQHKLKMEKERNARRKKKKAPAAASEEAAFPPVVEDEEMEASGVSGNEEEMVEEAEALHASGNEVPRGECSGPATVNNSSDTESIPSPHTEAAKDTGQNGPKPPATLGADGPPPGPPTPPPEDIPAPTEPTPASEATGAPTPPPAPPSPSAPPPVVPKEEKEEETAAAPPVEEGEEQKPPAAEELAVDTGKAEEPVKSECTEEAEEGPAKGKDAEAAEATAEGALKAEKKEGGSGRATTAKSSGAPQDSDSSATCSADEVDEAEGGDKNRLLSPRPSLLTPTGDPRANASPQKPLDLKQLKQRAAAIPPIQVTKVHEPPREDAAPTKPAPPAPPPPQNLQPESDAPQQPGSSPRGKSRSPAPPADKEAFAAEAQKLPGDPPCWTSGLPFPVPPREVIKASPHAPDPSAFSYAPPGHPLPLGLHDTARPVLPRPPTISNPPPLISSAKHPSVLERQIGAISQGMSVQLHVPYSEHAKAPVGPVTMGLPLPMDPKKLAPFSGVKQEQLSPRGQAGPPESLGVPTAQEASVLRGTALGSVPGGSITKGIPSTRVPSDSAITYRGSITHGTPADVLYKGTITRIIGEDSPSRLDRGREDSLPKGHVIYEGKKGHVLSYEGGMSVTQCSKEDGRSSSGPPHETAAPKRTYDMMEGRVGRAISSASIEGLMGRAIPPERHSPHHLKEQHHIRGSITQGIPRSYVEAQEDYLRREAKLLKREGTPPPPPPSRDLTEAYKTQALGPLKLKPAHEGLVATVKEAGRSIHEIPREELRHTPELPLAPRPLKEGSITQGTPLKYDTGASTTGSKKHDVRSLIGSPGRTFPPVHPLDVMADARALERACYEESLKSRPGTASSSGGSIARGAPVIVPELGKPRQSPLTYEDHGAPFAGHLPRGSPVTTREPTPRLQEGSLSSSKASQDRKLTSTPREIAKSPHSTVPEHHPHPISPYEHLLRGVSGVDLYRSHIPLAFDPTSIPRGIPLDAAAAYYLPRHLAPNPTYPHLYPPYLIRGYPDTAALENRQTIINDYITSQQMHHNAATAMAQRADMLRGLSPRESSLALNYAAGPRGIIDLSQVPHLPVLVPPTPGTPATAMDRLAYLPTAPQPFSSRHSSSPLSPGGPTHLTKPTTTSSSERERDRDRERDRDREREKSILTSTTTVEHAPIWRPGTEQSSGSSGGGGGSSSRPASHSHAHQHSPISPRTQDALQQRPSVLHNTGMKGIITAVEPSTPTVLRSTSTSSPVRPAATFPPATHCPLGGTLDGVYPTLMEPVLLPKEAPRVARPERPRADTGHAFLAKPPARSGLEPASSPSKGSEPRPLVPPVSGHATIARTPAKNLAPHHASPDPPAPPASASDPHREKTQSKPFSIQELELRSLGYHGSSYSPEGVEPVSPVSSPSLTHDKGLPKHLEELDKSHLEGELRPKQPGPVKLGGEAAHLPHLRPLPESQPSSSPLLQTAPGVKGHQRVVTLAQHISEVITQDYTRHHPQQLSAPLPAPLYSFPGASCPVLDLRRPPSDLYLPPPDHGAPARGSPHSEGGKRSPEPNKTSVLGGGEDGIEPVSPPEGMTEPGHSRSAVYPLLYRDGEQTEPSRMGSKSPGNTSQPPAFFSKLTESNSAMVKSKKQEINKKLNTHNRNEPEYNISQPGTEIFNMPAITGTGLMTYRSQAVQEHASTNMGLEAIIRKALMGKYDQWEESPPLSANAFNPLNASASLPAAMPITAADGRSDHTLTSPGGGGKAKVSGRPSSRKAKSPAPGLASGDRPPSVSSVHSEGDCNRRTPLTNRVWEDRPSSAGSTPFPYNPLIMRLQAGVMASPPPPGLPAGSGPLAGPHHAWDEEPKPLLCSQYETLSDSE
Sequence of Phospholipase A2 (P04054 whole entry): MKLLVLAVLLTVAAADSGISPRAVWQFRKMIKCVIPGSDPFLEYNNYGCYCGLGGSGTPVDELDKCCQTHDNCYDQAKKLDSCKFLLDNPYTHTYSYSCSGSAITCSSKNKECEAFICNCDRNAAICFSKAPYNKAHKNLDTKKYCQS
Sequence of Albumin (P02769 whole entry): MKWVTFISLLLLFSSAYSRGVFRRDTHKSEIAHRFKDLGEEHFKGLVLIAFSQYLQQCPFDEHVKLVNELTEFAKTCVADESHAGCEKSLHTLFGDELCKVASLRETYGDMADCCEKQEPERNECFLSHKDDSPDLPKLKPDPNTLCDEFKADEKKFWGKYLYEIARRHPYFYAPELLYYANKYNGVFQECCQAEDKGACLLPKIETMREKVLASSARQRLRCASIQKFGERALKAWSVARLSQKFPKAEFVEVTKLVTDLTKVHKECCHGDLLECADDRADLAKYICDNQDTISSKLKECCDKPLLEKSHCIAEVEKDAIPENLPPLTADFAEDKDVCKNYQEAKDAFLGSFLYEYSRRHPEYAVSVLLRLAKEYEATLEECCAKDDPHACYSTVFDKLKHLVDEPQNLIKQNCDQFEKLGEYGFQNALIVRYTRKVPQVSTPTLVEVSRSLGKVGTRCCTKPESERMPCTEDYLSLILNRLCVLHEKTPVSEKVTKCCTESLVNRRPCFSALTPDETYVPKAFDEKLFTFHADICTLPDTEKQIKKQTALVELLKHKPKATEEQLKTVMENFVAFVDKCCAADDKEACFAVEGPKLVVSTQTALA

What does the source list for `O=C(Nc1cccc2nsnc12)c1ccc(-c2cccc(Cl)c2)o1`?
IC50 [1]: > 20 µM (inactive); IC50 (SUMO-activating enzyme): 18.3 µM (active)

For `CN1CCc2nc(SCC(=O)Nc3cccc(F)c3)c(C#N)c(-c3cccs3)c2C1`, which EC50 [2] is on record?
The EC50 was < 0.1 µM (active).

And the EC50 (cells)?
The EC50 was < 0.004 µM (active).

And the EC50 [3]?
The EC50 was > 60 µM (not active).

And the EC50 [4]?
The EC50 was > 50 µM (active).

For `Cc1ccc2oc(-c3ccc(NC(=O)c4ccc5c(c4)OCO5)cc3)nc2c1`, which IC50 [5] is on record?
Its IC50 is 2 µM (active).

What about the IC50 [6] of the same molecule?
Its IC50 is 2.88 µM (active).

Which IC50 (Prothrombin) does the source give for `N#Cc1c(/N=C/c2ccco2)sc2c1CCC2` here?
The IC50 was > 50 µM (not active).

Which IC50 [5] does the source give for `O=c1cc(O)[nH]c2c1sc1nc(C(F)(F)F)c3c(c12)CCCCC3` here?
The IC50 was > 39.8 µM (not active).

What about the IC50 (Phospholipase A2) of the same molecule?
The IC50 was 9.53 µM (active).

What about the IC50 (Cysteine protease ATG4B) of the same molecule?
The IC50 was 11.1 µM (active).

What about the IC50 [6] of the same molecule?
Its IC50 is > 39.8 µM (not active).

Which IC50 [7] does the source give for `COC(=O)c1sccc1NC(=O)c1ccc(OC)cc1` here?
Its IC50 is 26.8 µM (not active).

Which results are given for `CSc1ccc(CN2CCC2(C)C(=O)Nc2cccc(NS(C)(=O)=O)c2)cc1` (stereo not drawn)?
AC50 [8]: 58.6 µM (active); AC50 [9]: 9.03 µM (active); AC50 [10]: 11.4 µM (active); AC50 [11]: 21.7 µM (active); AC50 [12]: 10.3 µM (active)

With `CCOC(=O)C1=C(NC(=O)Nc2ccc(Cl)c(Cl)c2)Nc2ccccc2N=C1CC` as the molecule, how does the EC50 [2] read?
The EC50 was 2.13 µM (active).

What about the EC50 [3] of the same molecule?
The EC50 was > 60 µM (not active).

And the AC50 [13]?
The AC50 was 2.11 µM (active).

And the IC50 (Albumin)?
Its IC50 is > 94.1 µM (inactive).

For `Nc1nc(-c2ccco2)nn1C(=O)c1ccccc1Cl`, which IC50 (Prothrombin) is on record?
Its IC50 is 14 µM (active).

For `N#Cc1ccccc1S(=O)(=O)N1CCN(C(=O)/C=C/c2ccc(F)cc2)CC1`, which IC50 [14] is on record?
Its IC50 is 0.0482 µM (active).

For `CN(C)/C=N\C(=O)c1sc2cc(C(F)(F)F)cnc2c1-c1cccs1`, which IC50 [15] is on record?
The IC50 was > 30 µM (not active).

With `COC(=O)[C@]12C[C@H](CC(=O)NCCC(C)C)C(=O)N(Cc3cccc4ccccc34)C1=C[C@H](C(C)C)O[C@@H]2C1CC1` as the molecule, how does the IC50 [16] read?
The IC50 was > 69.5 µM (inactive).

And the IC50 [17]?
Its IC50 is > 69.5 µM (inactive).
